This note sets out measurements from ChEMBL document CHEMBL3091287, “The ameliorating effects of 2,3-dihydroxy-4-methoxyacetophenone on scopolamine-induced memory impairment in mice and its neuroprotective activity” (Bioorg Med Chem Lett, 2013).

The structures appear in SMILES notation. Active and inactive are the calls of the source. The rule behind the calls is not given here.

A short description of series [1]: Antioxidant activity assessed as hydrogen peroxide radical scavenging activity. It is filed as functional.
Series [2] deals with Radical scavenging activity. Kind of series: Antioxidant activity assessed as DPPH radical scavenging activity after 30 mins. It counts as functional. (In general: DPPH is a stable violet radical that fades when it is reduced.)
For series [3], the system named is HT-22. Kind of series: Neuroprotective activity in mouse HT22 cells assessed as inhibition of glutamate-induced increase of intracellular calcium level at 10 to 100 uM after 2 hrs by Fura-2 AM assay. It is filed as functional, cell-based.
The test system of series [4] is Mus musculus. Kind of series: Toxicity in ICR mouse assessed as motor ability by measuring reduction of scopolamine-induced swimming speed at 1 to 50 mg/kg, po administered 1 hr before scopolamine challenge measured on day 4 by Morris water maze test. It counts as organism-based. More on the design: dose 1-50 mg/kg, route oral. To be noted: in vivo.
For series [5], the system named is Mus musculus. The series can be described thus: Cognitive-enhancing effect in ICR mouse assessed as reduction of scopolamine-induced increase in mean distance to platform at 1 to 50 mg/kg, po administered 1 hr before scopolamine challenge measured on day 4 by Morris water maze test. It counts as functional, organism-based.
Series [6] has as its system Mus musculus. The series can be described thus: Cognitive-enhancing effect in ICR mouse assessed as reduction of scopolamine-induced escape latency at 50 mg/kg, po administered 1 hr before scopolamine challenge measured on day 2 to 4 during trial 1 and 2 by Morris water maze test. It counts as functional, organism-based. More on the design: dose 50 mg/kg.
In series [7] the test system is Mus musculus. Kind of series: Cognitive-enhancing effect in ICR mouse assessed as reduction of scopolamine-induced escape latency at 40 mg/kg, po administered 1 hr before scopolamine challenge measured on day 3 during trial 1 and 2 by Morris water maze test. It is filed as functional, organism-based. The arrangement: dose 40 mg/kg.
Series [8] deals with Mus musculus. Kind of series: Cognitive-enhancing effect in ICR mouse assessed as reduction of scopolamine-induced escape latency at 1 to 20 mg/kg, po administered 1 hr before scopolamine challenge measured on day 4 during trial 1 and 2 by Morris water maze test. It counts as functional, organism-based.
Series [9] has as its system Mus musculus. The series can be described thus: Cognitive-enhancing effect in ICR mouse assessed as reduction of scopolamine-induced escape latency at 1 to 20 mg/kg, po administered 1 hr before scopolamine challenge measured on day 3 during trial 1 and 2 by Morris water maze test. It is filed as functional, organism-based.
For series [10], the system named is HT-22. Kind of series: Neuroprotective activity in mouse HT22 cells assessed as inhibition of glutamate-induced cell death after 24 hrs by MTT assay. It is filed as functional, cell-based. For orientation: Tetrazolium assays rely on reduction of a dye to a coloured formazan, in cell work by metabolically active cells.
For series [11], the system named is HT-22. The series can be described thus: Neuroprotective activity in mouse HT22 cells assessed as inhibition of glutamate-induced cell death at 10 uM after 24 hrs by MTT assay. It counts as functional. To be noted: HT-22, 24 h.

As for `COc1ccc(C(C)=O)c(O)c1O`, the values for the IC50 in series [1] and in series [2] were 90.8 µM and 98.1 µM, respectively. Further, the inhibition entry (in [1]; in [2]; in the series with HT-22 [10]) was “Dose-dependent effect” each time. Further, in the series on HT-22 [3], the inhibition – broadly, the drop in the measured response relative to a control, in per cent – is “Active”. Besides, the Activity entry in the series with Mus musculus [4] was “Non-toxic”. In addition, the outcome in the series with Mus musculus [5], with Mus musculus [6], in the series with Mus musculus [7] and in the series on Mus musculus [8] was Active. Besides, the result with Mus musculus [9] was inactive. Moreover, the concentration for a half-maximal effect (EC50) (commonly the concentration needed to bring the measured effect to its halfway point) in the series on HT-22 [10] (HT-22, 24 h) was 10.9 µM. For the same compound, the inhibition at 10 µM in the series with HT-22 [11] turned out to be 50%.
With `O=C1O[C@H]([C@@H](O)CO)C(O)=C1O` [ASCORBIC ACID], the IC50 – broadly, the point on the concentration scale where inhibition reaches its midpoint – in [1] turned out to be 76.8 µM; in [2], 35.2 µM.
